Patent US20160068843A1 (priority 2012, published 2016)
Like-named read-outs stand apart in the source and are kept apart here.

Test system: H5N1 virus (strain A/Vietnam/1194/04)
Assay type: in vivo, Balb/c mice

Structure (SMILES)	survival rate (comparison with existing flu therapeutics, started 24 hours post challenge, siRNA intranasal 100 ug per dose twice a day for two days) [%]	survival rate (mouse, in vivo) [%]
CC(=O)N[C@H]1[C@H]([C@H](O)[C@H](O)CO)OC(C(=O)O)=C[C@@H]1N=C(N)N [Zanamivir]	40	
NC(=O)c1ncn([C@@H]2O[C@H](CO)[C@@H](O)[C@H]2O)n1 [Ribavirin]		0
